What was measured:
Bacteria = assay: Test of elimination of bacteria in seawater (ballast water) by hydroxyl radical solution; assay type: cell-based; conditions: OH concentration 0.63 mg/L
Source text: (§1) Free radical generator of the present invention was made of anode electrode 22, cathode electrode 21, dielectric substance layer 24 and septum 23. Strong electric field of 250-600 Td was formed between the anode electrode and cathode electrode. […] The undissolved free radicals were removed by residual free radical treater 13. High frequency electric source made from transformer 5, invertor 6 and controller 7 was used to supply electric source to free radical generator 3. Free radical concentration measuring apparatus 4 was used to measure the concentration of free radical produced while the hydroxyl radical solution concentration analyzer 14 was used to measure the concentration of hydroxyl radical solution. Untreated ballast water was suctioned by pump 19 into conveying pipe and filtered by filter 16 (FIG. 2). A part of them was taken out and was processed by free radical generating unit 15 into hydroxyl radical solution which was then mixed in liquid-liquid mixer 20 with ballast water conveyed in pipe and flowed through flow meter 17 and valve 18. The effectiveness of the elimination of single cell alga, protozoans and bacteria was illustrated in Table 1.

single cell alga = assay: Test of elimination of single cell alga in seawater (ballast water) by hydroxyl radical solution; assay type: cell-based; conditions: OH concentration 0.63 mg/L
Source text: as §1

Protozoan = assay: Test of elimination of protozoan in seawater (ballast water) by hydroxyl radical solution; assay type: cell-based; conditions: OH concentration 0.63 mg/L
Source text: as §1

[1] = tested on: bacteria, single cell alga, protozoan, spore and vibrio; assay: Time and concentration needed to kill microorganisms in ballast water by hydroxyl radical; assay type: cell-based
Source text: as §1
The time necessary for elimination of single cell alga, protozoan, bacteria and the like was extremely short. […]

[2] = Decomposition of residual hydroxyl radicals; assay type: physicochemical; conditions: treated ballast water
Experimental: The residual hydroxyl radicals were decomposed after 20 min into H2O, O2 and the like and there was no any residual chemical reagent left. Therefore the method for treating ballast water by using hydroxyl radicals solution is a green effective method.

hydroxyl radical [OH]
Lethality (Bacteria): 100%
Microorganism concentration (Bacteria; untreated 1.9 × 10^5): not detectable
Lethality (single cell alga): 100%
Microorganism concentration (single cell alga; untreated 6.0 × 10^4): not detectable
Lethality (Protozoan): 100%
Microorganism concentration (Protozoan; untreated 4.4 × 10^4): not detectable
time needed for elimination of microorganism ([1]; from curve of time against lethality, FIG. 4): about 4 s
concentration at which killing is feasible ([1]; single cell alga, protozoan, spore, bacteria, vibrio in ballast water): 0.6 to 0.7 mg/L
time after which residual hydroxyl radicals were decomposed into H2O, O2 [2]: 20 min

From US20040251215A1, “Method for killing organicsms in the course of conveying ballast water in ships and apparatus thereof” (priority 2003, published 2004)
